Results from ChEMBL document CHEMBL5465560, “Selectivity Literature for EUbOPEN Chemogenomic Library” (2024).

Experiments:
[1] = molecular target: T1, Serine/threonine-protein kinase TAO2 (Homo sapiens) (UniProt Q9UL54); assay: Selectivity interaction (Kinase panel (literature)) EUB0001199aCl TAOK2; details: at 1 µM
T1 sequence (whole entry): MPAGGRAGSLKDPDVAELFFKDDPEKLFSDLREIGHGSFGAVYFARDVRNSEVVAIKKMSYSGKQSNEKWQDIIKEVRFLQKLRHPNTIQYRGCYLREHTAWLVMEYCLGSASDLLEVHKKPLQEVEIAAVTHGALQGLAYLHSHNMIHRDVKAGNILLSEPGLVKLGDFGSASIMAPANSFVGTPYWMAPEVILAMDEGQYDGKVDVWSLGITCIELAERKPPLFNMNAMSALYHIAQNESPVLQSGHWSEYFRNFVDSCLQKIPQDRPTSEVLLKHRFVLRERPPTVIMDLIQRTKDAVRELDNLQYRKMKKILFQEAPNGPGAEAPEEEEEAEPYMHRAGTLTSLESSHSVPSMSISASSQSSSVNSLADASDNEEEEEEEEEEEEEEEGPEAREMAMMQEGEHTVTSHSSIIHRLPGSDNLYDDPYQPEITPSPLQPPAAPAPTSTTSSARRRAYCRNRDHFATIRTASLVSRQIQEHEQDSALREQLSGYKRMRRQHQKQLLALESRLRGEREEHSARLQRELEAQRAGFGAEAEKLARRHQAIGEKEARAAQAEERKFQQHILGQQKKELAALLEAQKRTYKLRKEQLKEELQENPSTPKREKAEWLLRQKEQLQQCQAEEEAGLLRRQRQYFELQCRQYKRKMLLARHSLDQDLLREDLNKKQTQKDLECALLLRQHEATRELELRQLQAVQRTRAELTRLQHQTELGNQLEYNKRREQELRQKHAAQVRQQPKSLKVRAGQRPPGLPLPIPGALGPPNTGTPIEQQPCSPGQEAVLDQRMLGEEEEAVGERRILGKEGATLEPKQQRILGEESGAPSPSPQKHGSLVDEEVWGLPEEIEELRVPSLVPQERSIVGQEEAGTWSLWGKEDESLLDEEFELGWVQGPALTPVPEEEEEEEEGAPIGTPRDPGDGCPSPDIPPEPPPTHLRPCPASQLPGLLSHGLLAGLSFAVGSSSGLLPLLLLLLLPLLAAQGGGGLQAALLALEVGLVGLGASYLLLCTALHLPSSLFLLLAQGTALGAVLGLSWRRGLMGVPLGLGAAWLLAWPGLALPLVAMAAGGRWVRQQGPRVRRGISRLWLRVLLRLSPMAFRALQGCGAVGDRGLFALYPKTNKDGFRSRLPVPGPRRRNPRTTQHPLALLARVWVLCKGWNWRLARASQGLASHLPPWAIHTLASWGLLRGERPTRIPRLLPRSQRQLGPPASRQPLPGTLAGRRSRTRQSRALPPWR

[2] = molecular target: T2, Ephrin type-B receptor 1 (Homo sapiens) (UniProt P54762); assay: Selectivity interaction (KinomeScan (DiscoverX)) EUB0000666a EPHB1; details: at 10 µM
T2 sequence (whole entry): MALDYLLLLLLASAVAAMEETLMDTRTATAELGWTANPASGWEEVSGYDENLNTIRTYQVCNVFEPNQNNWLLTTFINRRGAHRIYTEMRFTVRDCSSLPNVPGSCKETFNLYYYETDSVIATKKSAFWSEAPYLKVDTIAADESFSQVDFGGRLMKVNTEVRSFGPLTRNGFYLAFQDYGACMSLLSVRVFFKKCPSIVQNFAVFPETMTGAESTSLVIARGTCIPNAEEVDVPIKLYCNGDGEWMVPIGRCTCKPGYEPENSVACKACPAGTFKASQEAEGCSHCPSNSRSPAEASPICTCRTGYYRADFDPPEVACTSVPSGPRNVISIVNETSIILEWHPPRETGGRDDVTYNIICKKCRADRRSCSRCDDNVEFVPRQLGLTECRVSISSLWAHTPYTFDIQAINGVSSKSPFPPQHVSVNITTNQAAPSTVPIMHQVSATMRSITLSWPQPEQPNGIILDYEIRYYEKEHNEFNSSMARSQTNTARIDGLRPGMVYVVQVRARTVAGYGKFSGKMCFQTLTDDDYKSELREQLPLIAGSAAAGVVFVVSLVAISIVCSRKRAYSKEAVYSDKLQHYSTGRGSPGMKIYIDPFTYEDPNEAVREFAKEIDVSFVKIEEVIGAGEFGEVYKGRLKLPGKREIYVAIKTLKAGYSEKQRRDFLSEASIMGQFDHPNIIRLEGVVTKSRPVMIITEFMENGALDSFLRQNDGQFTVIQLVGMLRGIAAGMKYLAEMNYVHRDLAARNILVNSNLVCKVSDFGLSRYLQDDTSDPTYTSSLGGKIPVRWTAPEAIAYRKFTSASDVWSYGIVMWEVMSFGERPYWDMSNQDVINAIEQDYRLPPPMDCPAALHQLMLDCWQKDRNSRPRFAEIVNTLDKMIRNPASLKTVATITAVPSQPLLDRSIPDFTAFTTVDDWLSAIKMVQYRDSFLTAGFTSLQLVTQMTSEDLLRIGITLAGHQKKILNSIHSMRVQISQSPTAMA

[3] = molecular target: Tyrosine-protein kinase Lck (Homo sapiens, UniProt P06239); assay: Selectivity interaction (Kinase panel (KiNativ target engagement assay in Jurkat cells)) EUB0001635a LCK; type: cell-based; details: Selectivity number of off-targets 0.0, Selectivity number of targets 233.0, Source Knowledge https://www.sciencedirect.com/science/article/pii/S2451945619300674?via%3Dihub, at 1 µM
Chain of Tyrosine-protein kinase Lck (P06239 2-509 limits assumed): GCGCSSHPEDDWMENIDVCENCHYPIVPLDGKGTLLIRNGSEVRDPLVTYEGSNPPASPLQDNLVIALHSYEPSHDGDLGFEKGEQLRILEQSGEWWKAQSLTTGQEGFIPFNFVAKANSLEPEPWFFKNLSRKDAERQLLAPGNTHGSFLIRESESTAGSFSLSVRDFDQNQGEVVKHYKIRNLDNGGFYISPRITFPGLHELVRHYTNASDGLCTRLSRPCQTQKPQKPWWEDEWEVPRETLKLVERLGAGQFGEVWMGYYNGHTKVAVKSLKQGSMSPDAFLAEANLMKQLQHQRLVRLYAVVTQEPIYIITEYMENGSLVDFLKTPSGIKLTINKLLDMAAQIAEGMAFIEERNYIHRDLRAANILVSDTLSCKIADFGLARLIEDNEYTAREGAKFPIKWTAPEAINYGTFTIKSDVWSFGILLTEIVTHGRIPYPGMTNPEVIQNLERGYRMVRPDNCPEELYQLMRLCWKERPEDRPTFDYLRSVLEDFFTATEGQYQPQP

[4] = molecular target: Cyclin-dependent kinase 2 (Homo sapiens, UniProt P24941); assay: Selectivity interaction (Ambit KINOMEscan and KiNATiv profiling in Jurkat cells) EUB0000090b CDK2; type: cell-based; details: at 1 µM
[5] = molecular target: Histone-lysine N-methyltransferase, H3 lysine-79 specific (Homo sapiens, UniProt Q8TEK3); assay: Selectivity interaction (Methyltransferase screen (Scintillation proximity assays)) EUB0000255b DOT1L
Chain of Histone-lysine N-methyltransferase, H3 lysine-79 specific (Q8TEK3 whole entry, looked up): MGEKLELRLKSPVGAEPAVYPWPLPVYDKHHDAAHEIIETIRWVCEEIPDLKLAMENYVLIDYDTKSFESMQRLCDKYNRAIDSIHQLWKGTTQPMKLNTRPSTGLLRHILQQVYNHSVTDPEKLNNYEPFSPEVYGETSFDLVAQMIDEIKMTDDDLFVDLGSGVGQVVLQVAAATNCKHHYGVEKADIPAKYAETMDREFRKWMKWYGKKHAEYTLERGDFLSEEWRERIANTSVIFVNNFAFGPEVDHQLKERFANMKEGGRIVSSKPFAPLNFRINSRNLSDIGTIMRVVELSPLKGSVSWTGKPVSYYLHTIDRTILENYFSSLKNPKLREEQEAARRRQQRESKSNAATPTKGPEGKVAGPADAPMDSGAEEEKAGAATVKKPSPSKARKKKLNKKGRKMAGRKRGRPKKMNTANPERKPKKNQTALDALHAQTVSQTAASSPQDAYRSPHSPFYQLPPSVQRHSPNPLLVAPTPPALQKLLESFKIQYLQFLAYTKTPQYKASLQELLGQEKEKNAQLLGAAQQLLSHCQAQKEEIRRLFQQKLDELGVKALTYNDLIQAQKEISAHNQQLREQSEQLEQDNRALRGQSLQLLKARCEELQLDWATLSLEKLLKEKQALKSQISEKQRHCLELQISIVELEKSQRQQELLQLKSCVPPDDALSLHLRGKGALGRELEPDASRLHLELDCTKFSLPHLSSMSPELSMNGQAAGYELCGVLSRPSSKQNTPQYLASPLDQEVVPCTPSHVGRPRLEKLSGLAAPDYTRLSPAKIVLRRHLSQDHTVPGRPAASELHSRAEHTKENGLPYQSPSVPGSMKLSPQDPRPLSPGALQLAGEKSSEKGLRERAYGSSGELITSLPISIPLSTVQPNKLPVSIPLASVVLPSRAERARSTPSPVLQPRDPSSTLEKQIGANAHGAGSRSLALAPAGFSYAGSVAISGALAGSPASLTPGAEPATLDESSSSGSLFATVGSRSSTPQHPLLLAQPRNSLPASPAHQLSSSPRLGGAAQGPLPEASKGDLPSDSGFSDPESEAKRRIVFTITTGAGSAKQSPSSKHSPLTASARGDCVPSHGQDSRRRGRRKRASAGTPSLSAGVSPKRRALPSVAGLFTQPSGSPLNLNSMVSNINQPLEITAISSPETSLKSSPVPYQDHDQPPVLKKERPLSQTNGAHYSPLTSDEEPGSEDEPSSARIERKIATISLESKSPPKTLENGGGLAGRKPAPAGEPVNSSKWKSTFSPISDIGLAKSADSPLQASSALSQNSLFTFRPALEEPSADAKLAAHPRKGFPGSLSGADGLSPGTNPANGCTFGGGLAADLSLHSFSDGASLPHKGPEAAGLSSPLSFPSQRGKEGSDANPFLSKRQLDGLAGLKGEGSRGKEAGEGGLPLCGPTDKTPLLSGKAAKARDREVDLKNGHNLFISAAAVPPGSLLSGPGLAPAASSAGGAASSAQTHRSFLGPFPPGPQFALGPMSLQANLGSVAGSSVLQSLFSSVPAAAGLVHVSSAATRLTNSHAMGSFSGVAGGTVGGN

CN1Cc2nccc(-c3cn(C)nc3-c3ccc(F)cc3)c2C1=O
% of inhibition [1]: -1%

O=C(NOC[C@H](O)CO)c1ccc(F)c(F)c1Nc1ccc(I)cc1F
% of control [2]: 100%

C=CC(=O)Nc1ccc(C(=O)Nc2[nH]nc3c2CN(C(=O)N[C@H](CN(C)C)c2ccccc2)C3(C)C)cc1
% of engagement [3]: -3.6%

CN(C)C/C=C/C(=O)Nc1ccc(C(=O)N2CCCC(Nc3ncc(Cl)c(-c4c[nH]c5ccccc45)n3)C2)cc1 (stereo unspecified)
% of control [4]: 72%

COCCN1CCC(c2cc(CN(C)C(=O)c3cccc(Oc4ccccc4)c3)ccn2)CC1
% activity ([5]; at 1 µM): > 95%
% activity ([5]; at 10 µM): > 90%
